From article PMC11350758, “Development of Xanthoangelol-Derived Compounds with Membrane-Disrupting Effects against Gram-Positive Bacteria” (Antibiotics, 2024) come the findings set out here.

In series [1] the test system is Gram-negative bacteria tested. Put plainly: MIC, summary over the Gram-negative bacteria tested. The note with it: read-out: MICs against the Gram-negative bacteria tested. Format: cell-based. As to the method:
(§1) All target derivatives were assessed for their in vitro antibacterial activities using a broth microdilution assay to test their minimum inhibitory concentrations (MICs) against six Gram-positive strains (S. aureus ATCC31007, S. aureus ATCC25923, S. aureus ATCC43300, E. faecalis ATCC29212, B. subtilis ATCC9372, and S. epidermidis ATCC12228) and four Gram-negative strains (A. baumannii ATCC19606, K. pneumonia ATCC10031, E. coli ATCC25922, and P. aeruginosa ATCC27853). These compounds were also evaluated for their hemolytic activities and membrane selectivity by determining their HC50 (the concentration required to lyse 50% of red blood cells) and SI (HC50/MICs) values, respectively, and vancomycin was used as the positive drug.
(§2) MICs of the derivatives were determined by the micro broth dilution method according to the American Clinical and Laboratory Standards Institute (CLSI) standards. Briefly, 2-fold serial dilutions of target compounds were prepared in 96-well plates containing TSB broth. An equal volume of bacterial suspension (10^6 CFU/mL) was then pipetted into each well, and the mixture was incubated at 37 °C for 24 h. […] All biological experiments were repeated three times.

The nature of series [2]: In vitro cytotoxicity evaluation. It is filed as cell-based. The note with it: human, LO2 cells. As to the method:
A key component in the development of antimicrobial agents for clinical application is the assessment of their potential toxicity to mammalian cells. To assess the cytotoxic impact, compound 9h was chosen to undergo in vitro testing for its cytotoxic effects on LO2 cells.

The test system of series [3] is S. aureus ATCC43300. Put plainly: Cell membrane permeabilization, PI uptake assay. Format: cell-based. The note with it: 16 μg/mL, at 20 min. How it is done:
The cell membrane permeabilization of compound 9h against S. aureus ATCC43300 was assessed by PI uptake assay. PI could only pass through the impaired cell membrane and had been widely used to evaluate the cell membrane permeability. When the cell membranes were disrupted, PI entered into the cell membrane, leading to a significant improvement in fluorescence intensity. Therefore, the degree of membrane damage could be reflected by observing the fluorescence intensity in S. aureus. […] Compared with the control group, the fluorescence intensity (at 20 min) increased approximately 5-fold after the addition of 9h (16 μg/mL).
Mid-log S. aureus ATCC43300 was collected and then washed with PBS three times. Bacterial suspension (1.0 × 10^8 CFU/mL, 150 μL) was added to a black 96-well plate; following this, fluorescent dye PI (10 μM, 50 μL) was added to each well of plates, and they were preincubated in the dark for 30 min. After the incubation, the fluorescence intensity was detected every minute for 6 min using a microplate reader (λex/λem = 535 nm/615 nm). […] The fluorescence intensity was determined similarly for another 14 min. All biological experiments were repeated three times.

The subject of series [4] is Gram-positive strains tested. The experiment in a line: MIC, summary over the Gram-positive strains tested. Format: cell-based. The note with it: read-out: MICs against the Gram-positive strains tested, range over the Gram-positive panel. As to the method: as §1, §2
The test system of series [5] is S. aureus ATCC43300. Put plainly: Resistance development assay (serial passage). Format: cell-based. The note with it: serial passage at 1/2 MIC for 20 days. As to the method: The rapid increase in bacterial resistance to antibiotics is a major challenge in clinical treatment, and in order to assess the drug resistance development for compound 9h, we performed a drug resistance assay against S. aureus ATCC43300. Norfloxacin was selected as the positive control. The S. aureus cells were incubated with sub-MIC (1/2 MIC) concentration of compound 9h and were serially passaged for a duration of 20 days.
Resistance was defined as a more than 4-fold increase in the tested compound in MIC when compared to the beginning value. Briefly, S. aureus ATCC43300 was cultured (37 °C, 200 rpm) in MHB broth for 5 h and diluted to 1 × 10^6 CFU/mL. Then, the bacteria were cultured with compound 9h at a sub-MIC concentration (1/2 MIC) for 18 h. The MICs were determined according to this method for consecutive 20 days. All biological experiments were repeated three times.

The subject of series [6] is S. aureus ATCC43300 biofilm formation. As to the method:
Bacterial biofilms created by the aggregation of bacteria is considered as one of the main reasons for the development of drug resistance. […] Subsequently, we further assessed the efficiency of 9h to eradicate the preformed biofilm. Matured S. aureus biofilm (grown for 24 h) was treated with compound 9h, and the rate of biofilm disruption was then assessed by the crystal violet staining assay.
Biofilm inhibition assay: S. aureus ATCC43300 was cultured (37 °C, 200 rpm) in MHB broth for 5 h and diluted to 1 × 10^6 CFU/mL. […] The planktonic supernatant cells were discarded and washed with PBS three times. Then, methanol (150 µL) was added to each well for 30 min. After discarding methanol, 0.1% crystal violet solution (150 µL) was added, and biofilms were stained for 15 min. Next, crystal violet solution was removed and washed with PBS three times. Finally, ethanol (150 µL) was pipetted into the wells, and the OD values were measured at 575 nm. The biofilm inhibition (%) = (ODcompound − ODblank)/(ODpositive control − ODblank) × 100%.

Series [7] deals with Enterococcus faecalis ATCC51299, vancomycin-resistant strain. Put plainly: MIC, broth microdilution. Format: cell-based. The note with it: Enterococcus faecalis ATCC51299, vancomycin-resistant; read-out: MIC E. f. 51299. In short, it runs like this:
(§3)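 Broth microdilution per CLSI: 2-fold serial compound dilutions in TSB broth, mixed with an equal volume of bacterial suspension at 10^6 CFU/mL. Incubated 37 °C for 24 h; experiments repeated three times.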

In series [8] the test system is Enterococcus faecium ATCC51559, vancomycin-resistant strain. Put plainly: MIC, broth microdilution. The note with it: Enterococcus faecium ATCC51559, vancomycin-resistant; read-out: MIC E. f. 51559. Format: cell-based. In short, it runs like this: as §3
The test system of series [9] is S. aureus ATCC4330. The experiment in a line: microbe, parasite or virus in culture. It is filed as cell-based. The note with it: Staphylococcus aureus, read-out: MBC. How it is done:
Due to the presence of various biological enzymes in plasma, natural AMPs are susceptible to enzymatic degradation upon entering the bloods, leading to a loss of their antimicrobial activity. To evaluate the plasma stability of active compound 9h, we conducted a stability assay by determining their MBC (minimum bactericidal concentration) values in plasma and different blood components. […] The observed initial increase in the MBC value, followed by remaining unchanged, could potentially be attributed to the initial binding of compound 9h with plasma proteins, causing a reduction in its activity. Once this binding became saturated, the bactericidal activity of the compound remained stable, further indicating the good stability of compound 9h in plasma.
MBCs of the compounds were tested. Furthermore, MBCs of compounds in 50% plasma, 50% serum, and 50% blood suspension were tested. The MBC value is defined as the concentration at which the colony count is less than 5 after 18 h of incubation at 37 °C. All biological experiments were repeated three times.

In brackets after ≈: the same amount, converted by molar mass. Read-outs that look alike come from different tables or passages of the source.

For the compound `CC(=O)c1c(OCCCNCCCN2CCN(C)CC2)c2c(c3c1OC(C)(CCC=C(C)C)C=C3)OC(C)(CCC=C(C)C)C=C2` (stereo not drawn) [Compound 9h, 1-(2,8-Dimethyl-2,8-bis(4-methylpent-3-en-1-yl)-5-(3-((3-(4-methylpiperazin-1-yl)propyl)amino)propoxy)-2H,8H-pyrano [2,3-f]chromen-6-yl)ethan-1-one], the MIC in series [1] was 4 to 16 µg/mL (≈ 6.31 to 25.2 µM); in [4] it was 0.5 to 8 µg/mL (≈ 0.789 to 12.6 µM); in [7], 8 µg/mL (≈ 12.6 µM); in [8], 4 µg/mL (≈ 6.31 µM). Also, the IC50 in series [2] was found to be 55 µg/mL (≈ 86.8 µM). Further, in [2] (2 μg/mL, read-out: Cell Viability (%)), the viability at 2 μg/mL worked out at 88.8%. Further, the viability at 4 μg/mL in series [2] (4 μg/mL, read-out: Cell Viability (%)) is 88.6%. Besides, in [2] (8 μg/mL, read-out: Cell Viability (%)), the viability at 8 μg/mL turned out to be 82.6%. Further, in series [2] (16 μg/mL, read-out: Cell Viability (%)), the viability at 16 μg/mL amounted to 78.4%. The viability at 32 μg/mL in series [2] (32 μg/mL, read-out: Cell Viability (%)) came to 71.4%. In [2] (64 μg/mL, read-out: Cell Viability (%)), the viability at 64 μg/mL was 58.1%. Moreover, the viability at 128 μg/mL in [2] (128 μg/mL, read-out: Cell Viability (%)) was 19.7%. For the same compound, the “increase of PI fluorescence intensity vs control group” value in series [3] is reported as “approximately 5 fold”. The “fold increase in MIC” value in series [5] was at most 4 fold. Further, the “inhibition of S. aureus biofilm formation” value in series [6] (1× MIC (2 μg/mL)) was 8.65%; in [6] (2× MIC), 10.87%. The MBC came out at 16 µg/mL (≈ 25.2 µM) in series [9] (ATCC4330, dissolved in Mueller Hinton broth (MHB)); 32 µg/mL (≈ 50.5 µM) in series [9] (ATCC4330, in 50% blood (Figure 3B)); 32 µg/mL (≈ 50.5 µM) in series [9] (ATCC4330, in 50% plasma (Figure 3B)); 32 µg/mL (≈ 50.5 µM) in [9] (ATCC4330, in 50% serum (Figure 3B)); 32 µg/mL (≈ 50.5 µM) in series [9] (ATCC4330, treatment with 50% plasma, unchanged after 3 and 6 h preincubation (Figure 3A)).
